The values below come from US6362181B1, “Isoquinolones” (Warner-Lambert Company, priority 1996, dated 2002).

SMILES strings stand for the structures. ≈ marks a conversion by molar mass, not a printed value. Read-outs that look alike come from different tables or passages of the source.

One series has as its system B. subtilis RB1. In words: Antibacterial assay, standard microtitration, MIC. It counts as cell-based. The note with it: Bacillus subtilis, Gram positive, read-out: Minimum Inhibitory Concentrations, B. subtilis RB1. In outline: (§1)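 Test agents were serially assayed in microtitre format against several Gram-positive and Gram-negative organisms, and growth inhibition was scored to give the lowest inhibitory concentration.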

The subject of another series is E. coli B90. The series can be described thus: Antibacterial assay, standard microtitration, MIC. It counts as cell-based. The note with it: Escherichia coli, Gram negative, read-out: Minimum Inhibitory Concentrations, E. coli B90. In short, it runs like this:
as §1

Another series concerns E. coli MC4100. In words: Antibacterial assay, standard microtitration, MIC. It counts as cell-based. The following applies: Escherichia coli, Gram negative, read-out: Minimum Inhibitory Concentrations, E. coli MC4100. In short, it runs like this: as §1
In another series the test system is S. aureus 29213. The series can be described thus: Antibacterial assay, standard microtitration, MIC. The series is classed as cell-based. The following applies: Staphylococcus aureus, Gram positive, read-out: Minimum Inhibitory Concentrations, S. aureus 29213. In short, it runs like this:
as §1

For the next series, the system named is S. pyogenes C203. The series can be described thus: Antibacterial assay, standard microtitration, MIC. The following applies: Streptococcus pyogenes, Gram positive, read-out: Minimum Inhibitory Concentrations, S. pyogenes C203. The series is classed as cell-based. In outline:
as §1

Another series has as its target T1, E. coli gyrase (Escherichia coli, UniProt P0AES4+P0AES6).
T1 construct: purchased Lucent, Ltd., Leicester, UK
In words: DNA gyrase supercoiling inhibition assay. It counts as biochemical. The method, then: The effects of test agents on the activity of DNA gyrase was determined by the supercoiling inhibition assay, following reaction conditions recommended by the enzyme supplier (Lucent, Ltd., Leicester, UK), as follows. Reactions were performed in buffer G (35 mM Tris-HCL (pH 7.5), 24 mM KCl, 4 mM MgCl2, 2 mM DTT, 1.8 mM spermidine, 1 mM ATP, 0.1 mg/mL bovine serum albumin). 0.25 μg of relaxed plasmid pBR322 (Lucent, Ltd., Leicester, UK) was reacted with 1 U E. coli gyrase (Lucent, Ltd., Leicester, UK), in the absence or presence of drugs, for 30 minutes at 37° C. Reactions were stopped by the addition of SDS and proteinase K to respective final concentrations of 1% and 0.5 mg/mL. After an additional 30 minutes at 37° C., one-tenth volume of 10×loading buffer (0.3% bromophenol blue, 16% Ficoll, 10 mM Na2HPO4) was added, and reactions were loaded onto agarose gels and electrophoresed as described above for intercalation assays. The concentration of drug inhibiting 50% of the supercoiling activity of DNA gyrase is given as an IC50 and recorded in Table 2.

A further series concerns the target T2, E. coli topoisomerase IV (Escherichia coli, UniProt P0AFI2+P20083).
T2 construct: made in house; host or cells: E. coli overexpressing strains
In words: Topoisomerase IV k-DNA decatenation assay. It counts as biochemical. On the procedure:
Topoisomerase IV was purified from E. coli overexpressing strains and the compounds were assayed according to literature conditions (Journal of Biological Chemistry, 1993;268(32):24481). The k-DNA decatenation assay was used. Briefly, reactions were performed in buffer R (40 mM Tris-HCl (pH 7.5), 6 mM MgCl2, 10 mM DTT, 100 mM potassium glutamate, 40 μM ATP, 50 μg/mL bovine serum albumin, 10 mM NaCl). 0.2 μg of kinetoplast DNA (k-DNA; TopoGen, Columbus, Ohio) was incubated with 5 ng of E. coli topoisomerase IV in the presence or absence of test compounds for 10 minutes at 37° C. Subsequently, one-tenth volume of 10×gel loading buffer (0.3% bromophenol blue, 16% Ficoll, 10 mM Na2HPO4) was added, and samples were loaded onto horizontal 0.8% agarose gels prepared with TBE buffer and containing 0.05 μg/mL of ethidium bromide. Electrophoresis was at 70 V for 2 to 4 hours. Gels were then examined by exposure to UV light. The concentration of drug inhibiting 50% of the decantenating activity of Topoisomerase IV is given as an IC50 and recorded in Table 2.

Series [1] in a line: Mammalian cell cytotoxicity, colony formation. The following applies: Chinese hamster, drug for 3 hours at 37° C., colony formation after 5 days, read-out: 50% Cytotoxic Conc. in CHO cells. The series is classed as cell-based. The method, then:
Mammalian Cell Cytotoxicity
The cells were grown overnight and treated with drug for 3 hours at 37° C., at which time the compound containing media was replaced with fresh media. The cells were then incubated for 5 days and examined for colony formation.

A further series concerns the target relaxed plasmid pBR322. In words: DNA intercalation/binding assay. The note with it: pBR322 with calf thymus topoisomerase I, 30 minutes at 37° C.; read-out: Drug Concentration causing 50% Intercalation of DNA. On the procedure: Compounds of the present invention were evaluated for their ability to intercalate/bind to DNA, using the procedure described in Nucleic Acids Research, 1987;15(15):6713. Specifically, 0.2 μg of relaxed plasmid pBR322 (Lucent, Ltd., Leicester, UK) was treated with 2 U of calf thymus topoisomerase I (Gibco/BRL, Gaithersburg, Md.) in buffer I (10 mM Tris-HCl (Ph 7.5), 50 mM KCl, 5 mM MgCl2, 1 mM Na2EDTA, 15 μg/mL bovine serum albumin) in the presence or absence of test compounds. Reaction were incubated for 30 minutes at 37° C.; volumes were typically 30 μL. Reactions were terminated by the addition of sodium dodecylsulfate (SDS) to 1% and proteinase K to 0.5 mg/mL final concentrations. After an additional 30 minutes at 37° C., one-tenth volume of 10×concentrated loading buffer (0.3% bromophenol blue, 16% Ficoll, 10 mM Na2HPO4) was added, and samples were loaded onto horizontal 0.8% agarose gels prepared in TAE buffer. Electrophoresis was at 22 V for 14 hours. Gels were then stained by soaking for 1.5 hours in deionized water containing 0.2 μg/mL of ethidium bromide, followed by destaining in deionized water for an additional 1.5 hours. Gels were examined and photographed following exposure to UV light. The concentration of the drug which induced a 50% change in the DNA by intercalation is represented by an intercalation IC50 and is recorded in Table 4.

For a further series, the system named is E. coli To1C. The series can be described thus: Antibacterial assay, standard microtitration, MIC. It counts as cell-based. The note with it: Escherichia coli, TO1C, read-out: Minimum Inhibitory Concentrations, E. coli To1C. In outline: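 Antibacterial activity is measured in microtitre plates against both Gram classes of bacteria, with MIC taken as the endpoint.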

Setting [2] is: supercoiling of relaxed pBR322, 30 minutes at 37° C., read-out: DNA Gyrase IC50.
Setting [3] is: k-DNA decatenation, 10 minutes at 37° C., read-out: Top IV IC50.

T1 sequence (P0AES4 whole entry, one chain of several): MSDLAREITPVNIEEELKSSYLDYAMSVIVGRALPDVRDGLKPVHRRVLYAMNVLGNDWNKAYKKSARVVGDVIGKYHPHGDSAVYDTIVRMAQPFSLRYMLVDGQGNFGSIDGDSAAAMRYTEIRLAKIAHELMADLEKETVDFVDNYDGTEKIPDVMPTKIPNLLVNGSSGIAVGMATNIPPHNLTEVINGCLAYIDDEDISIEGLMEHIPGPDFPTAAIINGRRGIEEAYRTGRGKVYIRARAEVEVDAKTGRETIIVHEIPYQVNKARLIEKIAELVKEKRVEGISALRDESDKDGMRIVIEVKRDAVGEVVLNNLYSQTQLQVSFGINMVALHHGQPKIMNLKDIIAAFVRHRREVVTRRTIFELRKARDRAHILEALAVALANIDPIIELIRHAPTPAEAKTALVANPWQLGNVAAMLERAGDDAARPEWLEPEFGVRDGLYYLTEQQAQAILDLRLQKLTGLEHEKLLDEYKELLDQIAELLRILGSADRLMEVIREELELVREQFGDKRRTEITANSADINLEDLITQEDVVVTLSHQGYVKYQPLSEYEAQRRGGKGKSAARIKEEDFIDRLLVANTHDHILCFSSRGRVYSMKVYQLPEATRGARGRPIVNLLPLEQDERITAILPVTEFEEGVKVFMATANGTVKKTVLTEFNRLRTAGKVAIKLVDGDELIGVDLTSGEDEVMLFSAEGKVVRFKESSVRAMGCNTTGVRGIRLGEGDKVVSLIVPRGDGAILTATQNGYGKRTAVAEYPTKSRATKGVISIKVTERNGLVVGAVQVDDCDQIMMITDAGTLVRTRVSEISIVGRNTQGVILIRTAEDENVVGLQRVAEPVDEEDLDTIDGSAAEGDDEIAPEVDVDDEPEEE
T2 sequence (P0AFI2 whole entry): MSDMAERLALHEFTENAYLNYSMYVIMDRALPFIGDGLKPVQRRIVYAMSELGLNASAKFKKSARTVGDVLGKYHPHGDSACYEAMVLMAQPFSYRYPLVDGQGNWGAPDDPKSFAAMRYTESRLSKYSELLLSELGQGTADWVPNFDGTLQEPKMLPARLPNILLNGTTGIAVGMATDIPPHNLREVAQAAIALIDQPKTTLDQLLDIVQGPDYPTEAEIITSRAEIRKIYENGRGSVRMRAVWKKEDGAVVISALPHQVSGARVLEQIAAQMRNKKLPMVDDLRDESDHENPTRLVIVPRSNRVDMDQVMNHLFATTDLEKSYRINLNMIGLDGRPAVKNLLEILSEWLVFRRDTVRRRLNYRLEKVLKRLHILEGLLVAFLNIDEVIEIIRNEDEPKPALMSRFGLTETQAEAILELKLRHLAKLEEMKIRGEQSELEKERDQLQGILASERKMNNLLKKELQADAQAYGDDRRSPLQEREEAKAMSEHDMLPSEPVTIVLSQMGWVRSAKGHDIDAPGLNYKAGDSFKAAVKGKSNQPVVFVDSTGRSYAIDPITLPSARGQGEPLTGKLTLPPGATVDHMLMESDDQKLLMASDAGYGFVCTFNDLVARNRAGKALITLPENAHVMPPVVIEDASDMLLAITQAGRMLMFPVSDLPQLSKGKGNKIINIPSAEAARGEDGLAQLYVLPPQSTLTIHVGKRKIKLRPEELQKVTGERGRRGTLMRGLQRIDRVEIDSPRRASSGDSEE
T2 sequence (P20083 whole entry): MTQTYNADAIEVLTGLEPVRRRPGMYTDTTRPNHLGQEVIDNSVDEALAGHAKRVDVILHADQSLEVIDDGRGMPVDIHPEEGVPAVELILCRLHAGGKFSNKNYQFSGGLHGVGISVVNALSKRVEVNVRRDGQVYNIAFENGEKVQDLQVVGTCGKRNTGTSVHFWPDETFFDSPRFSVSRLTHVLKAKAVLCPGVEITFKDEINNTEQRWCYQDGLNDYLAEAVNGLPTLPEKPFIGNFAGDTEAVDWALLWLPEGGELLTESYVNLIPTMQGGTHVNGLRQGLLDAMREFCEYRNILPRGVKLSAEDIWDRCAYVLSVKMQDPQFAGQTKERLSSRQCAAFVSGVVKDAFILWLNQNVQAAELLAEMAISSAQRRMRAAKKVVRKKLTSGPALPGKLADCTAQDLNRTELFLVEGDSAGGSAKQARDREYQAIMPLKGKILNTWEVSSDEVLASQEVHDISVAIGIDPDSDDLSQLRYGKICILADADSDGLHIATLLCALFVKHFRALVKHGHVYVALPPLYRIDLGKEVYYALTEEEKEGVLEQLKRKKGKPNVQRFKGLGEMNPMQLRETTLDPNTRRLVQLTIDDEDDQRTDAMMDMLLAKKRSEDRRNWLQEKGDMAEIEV

On to `COc1cc2c3c(cccc3c1)C(=O)N(O)C2=O` [Example 13, 2-Hydroxy-5-methoxy-benzo[de]isoquinoline-1,3-dione], for which the MIC was 1 µg/mL (≈ 4.11 µM) in the series with B. subtilis RB1; 0.13 µg/mL (≈ 0.534 µM) in the series with E. coli B90; 0.5 µg/mL (≈ 2.06 µM) in the series with E. coli MC4100; 8 µg/mL (≈ 32.9 µM) in the series with S. aureus 29213; more than 64 µg/mL in the series on S. pyogenes C203. In addition, the IC50 at E. coli gyrase (setting [2]) was 11 µM; at E. coli topoisomerase IV (setting [3]), 29 µM; on relaxed plasmid pBR322 it was more than 100 µM. Also, in series [1] (Chinese hamster cells), the IC50 at 3 h was more than 250 µM.

With `CSc1ccc2c3c(cccc13)C(=O)N(O)C2=O` [Example 16, 2-Hydroxy-6-methylthio-benzo[de]isoquinoline-1,3-dione], the MIC with B. subtilis RB1 is 2 µg/mL (≈ 7.71 µM); in the series with E. coli B90, 1 µg/mL (≈ 3.86 µM); with E. coli MC4100, more than 64 µg/mL; in the series with E. coli To1C it was 1 µg/mL (≈ 3.86 µM); in the series on S. aureus 29213, 8 µg/mL (≈ 30.9 µM); with S. pyogenes C203 it was 64 µg/mL (≈ 247 µM). Moreover, the IC50 at 3 h in series [1] (Chinese hamster cells) was more than 250 µM. For the same compound, the IC50 on relaxed plasmid pBR322 is more than 100 µM.

`COc1cc2c3c(cccc3c1Br)C(=O)N(O)C2=O` [Example 32, 6-Bromo-2-hydroxy-5-methoxy-benzo[de]isoquinoline-1,3-dione]: the MIC with B. subtilis RB1 is 4 µg/mL (≈ 12.4 µM); in the series on E. coli B90 it was 8 µg/mL (≈ 24.8 µM); with E. coli MC4100, more than 64 µg/mL; in the series on E. coli To1C, 4 µg/mL (≈ 12.4 µM); in the series on S. aureus 29213 it was 8 µg/mL (≈ 24.8 µM); in the series on S. pyogenes C203, more than 64 µg/mL. Further, the IC50 at 3 h in series [1] (Chinese hamster cells) is more than 250 µM. The IC50 on relaxed plasmid pBR322 was more than 100 µM.

For the compound `NC1CCN(c2ccc3c4c(cccc24)C(=O)N(O)C3=O)C1` (stereo not shown) [Example 62, 6-(3-Amino-pyrrolidin-1-yl)-2-hydroy-benzo[de]isoquinoline-1,3-dione], the MIC is 64 µg/mL (≈ 215 µM) with B. subtilis RB1; 32 µg/mL (≈ 108 µM) in the series on E. coli B90; more than 64 µg/mL in the series on E. coli MC4100; 8 µg/mL (≈ 26.9 µM) with E. coli To1C; more than 64 µg/mL in the series on S. aureus 29213; 4 µg/mL (≈ 13.5 µM) with S. pyogenes C203. Moreover, on E. coli gyrase (setting [2]), the IC50 is 18 µM. For the same compound, in [1] (Chinese hamster cells), the IC50 at 3 h amounted to 177 µM.

`Nc1cc2c3c(cccc3c1Cl)C(=O)N(O)C2=O` [Example 28, 5-Amino-6-chloro-2-hydroxy-benzo[de]isoquinoline-1,3-dione]: the MIC is 4 µg/mL (≈ 15.2 µM) with B. subtilis RB1; 1 µg/mL (≈ 3.81 µM) in the series on E. coli B90; 16 µg/mL (≈ 60.9 µM) with E. coli MC4100; 1 µg/mL (≈ 3.81 µM) in the series with E. coli To1C; 4 µg/mL (≈ 15.2 µM) in the series with S. aureus 29213; more than 64 µg/mL with S. pyogenes C203. For the same compound, the IC50 at E. coli gyrase (setting [2]) is 20 µM; at E. coli topoisomerase IV (setting [3]), 7 µM; at relaxed plasmid pBR322 it was more than 100 µM. Besides, in [1] (Chinese hamster cells), the IC50 at 3 h is more than 250 µM.

Turning to `CN1CCN(c2c(Br)cc3c4c(cccc24)C(=O)N(O)C3=O)CC1` [Example 50, 5-Bromo-2-hydroxy-6-(4-methylpiperazin-1-yl)-benzo[de]isoquinoline-1,3-dione], the MIC worked out at 4 µg/mL (≈ 10.3 µM) with B. subtilis RB1; 2 µg/mL (≈ 5.13 µM) in the series on E. coli B90; 32 µg/mL (≈ 82 µM) with E. coli MC4100; 2 µg/mL (≈ 5.13 µM) in the series with E. coli To1C; 8 µg/mL (≈ 20.5 µM) in the series on S. aureus 29213; 8 µg/mL (≈ 20.5 µM) in the series on S. pyogenes C203. Further, the IC50 at E. coli gyrase (setting [2]) was determined as 31 µM; at E. coli topoisomerase IV (setting [3]), 97 µM. For the same compound, in [1] (Chinese hamster cells), the IC50 at 3 h amounted to 88 µM.

Turning to `O=C1c2cc([N+](=O)[O-])cc3cc([N+](=O)[O-])cc(c23)C(=O)N1O` [Example 42, 2-Hydroxy-5,8-dinitro-benzo[de]isoquinoline-1,3-dione], the MIC with B. subtilis RB1 was 16 µg/mL (≈ 52.8 µM); in the series with E. coli B90, 1 µg/mL (≈ 3.3 µM); in the series with E. coli MC4100, 4 µg/mL (≈ 13.2 µM); in the series with S. aureus 29213, 8 µg/mL (≈ 26.4 µM); in the series on S. pyogenes C203 it was 32 µg/mL (≈ 106 µM). The IC50 against E. coli gyrase was 20 µM; on E. coli topoisomerase IV, 20 µM; on relaxed plasmid pBR322, more than 100 µM. The IC50 at 3 h in [1] stood at 160 µM.

Regarding `Nc1cc2c3c(cccc3c1)C(=O)N(O)C2=O` [Example 8, 5-Amino-2-hydroxy-benzo[de]isoquinoline-1,3-dione], the MIC in the series with B. subtilis RB1 is 8 µg/mL (≈ 35.1 µM); in the series on E. coli B90, 4 µg/mL (≈ 17.5 µM); in the series with E. coli MC4100, 8 µg/mL (≈ 35.1 µM); with S. aureus 29213, 32 µg/mL (≈ 140 µM); with S. pyogenes C203, more than 64 µg/mL. The IC50 is 7 µM at E. coli gyrase (setting [2]), 65 µM on E. coli topoisomerase IV (setting [3]) and more than 100 µM on relaxed plasmid pBR322. In addition, the IC50 at 3 h in series [1] (Chinese hamster cells) was more than 500 µM.
